Test results from ChEMBL document CHEMBL1130874, “Heteroatom- and carbon-linked biphenyl analogs of Brequinar as immunosuppressive agents” (Bioorg Med Chem Lett, 1998).

Legend:
[1] = Ability to inhibit proliferation in a mixture of human lymphocytes from two unrelated donors in MLR (human mixed lymphocyte reaction); type: functional, cell-based
[2] = molecular target: Dihydroorotate dehydrogenase (quinone), mitochondrial (Homo sapiens, UniProt Q02127); assay: Immunosuppressive effect in an isolated enzyme assay using partially purified Dihydroorotate dehydrogenase from human liver for inhibition of the formation of orotate from radiolabeled dihydroorotate
Chain of Dihydroorotate dehydrogenase (quinone), mitochondrial (Q02127 whole entry): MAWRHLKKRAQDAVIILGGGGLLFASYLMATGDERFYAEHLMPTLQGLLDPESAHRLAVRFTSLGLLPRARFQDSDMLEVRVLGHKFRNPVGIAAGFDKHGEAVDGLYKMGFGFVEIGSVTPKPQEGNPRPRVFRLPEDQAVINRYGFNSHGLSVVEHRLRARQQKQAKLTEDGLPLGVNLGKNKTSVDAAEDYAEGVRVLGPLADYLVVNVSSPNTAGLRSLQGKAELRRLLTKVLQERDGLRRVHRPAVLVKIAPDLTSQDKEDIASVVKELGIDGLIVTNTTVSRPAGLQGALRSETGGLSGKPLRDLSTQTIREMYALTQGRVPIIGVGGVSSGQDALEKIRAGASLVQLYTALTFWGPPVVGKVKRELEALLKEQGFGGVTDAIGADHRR

Row | SMILES | IC50 [1] [nM] | Ki [2] [nM]
1 | Cc1c(N(C)c2cccc(-c3ccccc3)c2)nc2ccc(F)cc2c1C(=O)O | > 10000 | 240
2 | COc1ccccc1-c1cccc2c(-c3nc4ccc(F)cc4c(C(=O)O)c3C)cn(C)c12 | 650 | 40
3 | Cc1c(Nc2ccc(-c3ccccc3)cc2)nc2ccc(F)cc2c1C(=O)O | > 10000 | > 430
4 | Cc1c(Nc2cccc(-c3ccccc3)c2)nc2ccc(F)cc2c1C(=O)O | 340 | 83
5 | Cc1c(-n2cnc3c(-c4ccccc4)cccc32)nc2ccc(F)cc2c1C(=O)O | 4700 | 71
6 | Cc1c(Nc2ccccc2)nc2ccc(F)cc2c1C(=O)O | > 10000 | > 200
7 | Cc1c(Oc2ccccc2)nc2ccc(F)cc2c1C(=O)O | > 10000 | > 1000
8 | Cc1c(-n2ccc3c(-c4ccccc4)cccc32)nc2ccc(F)cc2c1C(=O)O | 380 | 4.5
9 | Cc1c(-c2ccc(-c3ccccc3F)cc2)nc2ccc(F)cc2c1C(=O)O [BREQUINAR SODIUM] | 15 | –
10 | COc1ccccc1-c1cccc2c1CCN2c1nc2ccc(F)cc2c(C(=O)O)c1C | 4.1 | 30
11 | Cc1c(OCc2cccc(-c3ccccc3)c2)nc2ccc(F)cc2c1C(=O)O | > 10000 | 330
12 | Cc1c(N2CCc3c(-c4ccccc4F)cccc32)nc2ccc(F)cc2c1C(=O)O | 2.8 | 24
13 | Cc1c(-c2cccc3c(-c4ccccc4)cccc23)nc2ccc(F)cc2c1C(=O)O | 150 | 26
14 | COc1cccc(-c2cccc3c(-c4nc5ccc(F)cc5c(C(=O)O)c4C)cn(C)c23)c1 | 190 | 32
15 | Cc1c(N2CCc3c(-c4ccccc4)cccc32)nc2ccc(F)cc2c1C(=O)O | 26 | 15
16 | COc1cc(-c2ccccc2)c2c(c1)N(c1nc3ccc(F)cc3c(C(=O)O)c1C)CC2 | 35 | 22
17 | Cc1ccccc1-c1cccc2c1CCN2c1nc2ccc(F)cc2c(C(=O)O)c1C | 1.6 | 25
18 | Cc1c(-c2cn(C)c3c(-c4cccc(C(F)(F)F)c4)cccc23)nc2ccc(F)cc2c1C(=O)O | 7 | 23
19 | COc1cccc(-c2cccc3c2CCN3c2nc3ccc(F)cc3c(C(=O)O)c2C)c1 | 4 | 34
20 | Cc1c(N2CCc3c(-c4cccc(C(F)(F)F)c4)cccc32)nc2ccc(F)cc2c1C(=O)O | 0.41 | 24
21 | Cc1c(-c2c[nH]c3c(-c4ccccc4)cccc23)nc2ccc(F)cc2c1C(=O)O | 1600 | > 130
22 | CC(=O)N(c1cccc(-c2ccccc2)c1)c1nc2ccc(F)cc2c(C(=O)O)c1C | > 10000 | > 390
23 | Cc1c(-c2cn(C)c3c(-c4ccccc4)cccc23)nc2ccc(F)cc2c1C(=O)O | 140 | 27
24 | Cc1c(Oc2cccc(-c3ccccc3)c2)nc2ccc(F)cc2c1C(=O)O | 210 | 21
25 | Cc1c(Oc2ccc(-c3ccccc3)cc2)nc2ccc(F)cc2c1C(=O)O | > 10000 | > 1000
26 | Cc1c(N2CCc3c(-c4ccccc4)cc(F)cc32)nc2ccc(F)cc2c1C(=O)O | 41 | 30
27 | Cc1c(OCc2ccc(-c3ccccc3)cc2)nc2ccc(F)cc2c1C(=O)O | > 10000 | > 200
